# From patent US20180186796A1, “COMPOUNDS AND USES THEREOF” (LEAD DISCOVERY SIENA S.R.L., priority 2014, published 2018)
# Read-outs that look alike come from different tables or passages of the source.
# Key:
# Recombinant human Src = target: T1, Recombinant human Src (Homo sapiens, UniProt P12931); experiment: Enzymatic assay on isolated Src; format: biochemical
# T1 construct: purchased Upstate (Lake Placid, N.Y.)
# Excerpt: Recombinant human Src was purchased from Upstate (Lake Placid, N.Y.).
# [1] = PAMPA, intestinal (GI) permeability; conditions: for Papp / Papp at 5 h, 0.5 mM: PAMPA; for Papp: Table 6; for PAMPA GI (MR %): Membrane Retention; for Papp at 5 h, 0.5 mM: pH 7.4
# Description: (§1) Donor solution (0.5 mM) was prepared by diluting 1 mM dimethylsulfoxide (DMSO) compound stock solution using phosphate buffer (pH 7.4, 0.025 M). […] Donor solution (150 μL) was added to each well of the filter plate. To each well of the acceptor plate were added 300 μL of solution (50% DMSO in phosphate buffer). All compounds were tested in three different plates on different days. The sandwich was incubated for 5 h at room temperature under gentle shaking. After the incubation time, the plates were separated, and samples were taken from both receiver and donor sides and analyzed using LC with UV detection at 280 nm.
# (§2) Permeability (Papp) for PAMPA was calculated according to the following equation, obtained from Wohnsland and Faller^27 and Sugano et al.^28 equation with some modification in order to obtain permeability values in cm s^−1,
# (§3) Drug concentration is estimated by using the peak area integration. Membrane retentions (%) were calculated according to the following equation:
# (§4) where r is the ratio between drug concentration in the acceptor and equilibrium concentration, D, A, and Eq represented drug concentration in the donor, acceptor and equilibrium solution, respectively.
# (§5) Donor solution of tested compounds (0.5 mM) was prepared by diluting 1 mM dimethylsulfoxide (DMSO) compound stock solution using phosphate buffer (pH 7.4, 25 mM). […] Donor solution (150 μL) was added to each well of the filter plate. To each well of the acceptor plate were added 300 μL of solution (50% DMSO in phosphate buffer). Compounds was tested in three different plates on different days. The sandwich was incubated for 5 h at room temperature under gentle shaking.
# (§6) Permeability (Papp) for PAMPA was calculated according to the following equation, obtained from Wohnsland and Faller and Sugano et al.^27, 28.
# (§7) Drug concentration is estimated by using the peak area integration. Membrane retention (%) was calculated according to the following equation:
# [2] = Microsomal stability assay; conditions: for Metabolic Stab.: percentage of unmodified parent drug, human liver microsomes 60 min; for Metabolic Stab. %: percentage of unmodified drug, Table 8
# recombinant Fyn = recombinant Fyn (Homo sapiens, UniProt P06241); experiment: Enzymatic assay on isolated Fyn kinase
# Description: Kinase assays were performed in presence of 200 μM ATP and 100 μM peptide substrate. All inhibition assays were conducted with 0.01 μg active kinase, 0.33 μmol [^γ32P]ATP, 60 mM HEPES-NaOH pH 7.5, 3 μM Na-orthovanadate, 1.2 mM DTT, 50 μg/ml PEG20.0000, 10 mM magnesium acetate, 0.004% NP40 and 10% DMSO in a final volume of 10 μL. Fyn and inhibitors were preincubated in ice for 5 min; after addition of the substrates the reaction was conducted at 30° C. for 10 min. The reaction was stopped by adding 5 μL of 3% phosphoric acid. Aliquots (10 μL) were then transferred into a P30 Filtermat (PerkinElmer), washed five times with 75 mM phosphoric acid and once with acetone for 5 minute. The filter was dried and transferred to a sealable plastic bag, and scintillation cocktail (4 mL) was added. Spotted reactions were read in a MicroBeta Liquid (Perkinelmer) scintillation counter. The ID50 values were obtained according to the following equation:
# Ki values toward recombinant Fyn were calculated using the equation:
# according to a competitive mechanism of inhibition toward ATP substrate, where [SATP] is the concentration of ATP. Curve fitting was performed with the program GraphPad Prism version 5.00.
# PAMPA, BBB permeability = conditions: for PAMPA BBB (MR %): Membrane Retention; for Papp at 5 h, 0.5 mM: PAMPA, pH 7.4
# Description: as §1, §2, §3, §4, §5, §6, §7
# Water solubility assay = conditions: for solubility at 24 h / solubility thermodynamic at 24 h: water, 20 °C, thermodynamic from solid; for H2O Solubility: Table 6
# [3] = mean of at least two experiments, read-out: Enzymatic Data (Ki, μM) c-Src
# [4] = read-out: Enzymatic Data (Ki, μM) Fyn
# T1 sequence (P12931 whole entry): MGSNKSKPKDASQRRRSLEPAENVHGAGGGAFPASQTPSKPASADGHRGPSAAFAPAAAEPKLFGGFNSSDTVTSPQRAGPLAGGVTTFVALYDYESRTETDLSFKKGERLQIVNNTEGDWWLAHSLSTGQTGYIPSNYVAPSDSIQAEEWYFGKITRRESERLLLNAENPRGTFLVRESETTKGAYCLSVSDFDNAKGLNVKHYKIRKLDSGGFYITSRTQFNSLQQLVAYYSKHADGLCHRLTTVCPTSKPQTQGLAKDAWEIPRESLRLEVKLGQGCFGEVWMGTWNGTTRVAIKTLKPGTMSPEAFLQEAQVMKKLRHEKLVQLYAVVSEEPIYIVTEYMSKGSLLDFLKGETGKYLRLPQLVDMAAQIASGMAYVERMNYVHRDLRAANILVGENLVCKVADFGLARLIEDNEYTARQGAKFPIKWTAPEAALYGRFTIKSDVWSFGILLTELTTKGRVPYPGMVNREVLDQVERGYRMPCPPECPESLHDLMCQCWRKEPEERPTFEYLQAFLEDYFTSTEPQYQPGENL
# recombinant Fyn, sequence (P06241 whole entry, looked up): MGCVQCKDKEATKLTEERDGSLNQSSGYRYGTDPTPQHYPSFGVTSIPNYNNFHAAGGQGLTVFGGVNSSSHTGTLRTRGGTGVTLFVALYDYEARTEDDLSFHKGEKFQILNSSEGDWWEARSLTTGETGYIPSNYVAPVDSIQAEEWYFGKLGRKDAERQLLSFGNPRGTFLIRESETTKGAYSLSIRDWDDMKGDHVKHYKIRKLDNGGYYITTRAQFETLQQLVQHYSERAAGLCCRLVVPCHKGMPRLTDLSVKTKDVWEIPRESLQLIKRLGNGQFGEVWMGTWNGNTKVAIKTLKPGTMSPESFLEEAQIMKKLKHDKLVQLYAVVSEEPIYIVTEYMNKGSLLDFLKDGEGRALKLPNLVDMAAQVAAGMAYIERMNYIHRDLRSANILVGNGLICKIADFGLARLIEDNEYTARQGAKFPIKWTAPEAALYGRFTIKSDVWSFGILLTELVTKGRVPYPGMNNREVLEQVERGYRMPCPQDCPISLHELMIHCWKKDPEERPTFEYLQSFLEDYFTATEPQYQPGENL
structure (smiles),measurement,setting,value
CSc1nc(Nc2ccccc2)c2cnn(CCc3ccccc3)c2n1,Ki,Recombinant human Src; [3],1.46 µM
same,Papp,[1],7.60 10^−6 cm/sec
same,Metabolic Stab.,[2],90%
CSc1nc(Nc2cccc(F)c2)c2cnn(CCc3ccccc3)c2n1,Ki,Recombinant human Src; [3],1.06 µM
same,Papp,[1],9.33 10^−6 cm/sec
CSc1nc(Nc2cccc(Br)c2)c2cnn(CCc3ccccc3)c2n1,Ki,Recombinant human Src; [3],0.2 µM
same,Papp,[1],3.26 10^−6 cm/sec
CSc1nc(Nc2cccc(O)c2)c2cnn(CCc3ccccc3)c2n1,Ki,Recombinant human Src; [3],0.62 µM
same,Papp,[1],5.24 10^−6 cm/sec
Clc1cccc(Nc2nc(SCCN3CCOCC3)nc3c2cnn3CCc2ccccc2)c1,Ki,Recombinant human Src; [3],1.2 µM
same,Papp,[1],3.50 10^−6 cm/sec
CCSc1nc(Nc2cccc(F)c2)c2cnn(CC(C)c3ccccc3)c2n1 (stereo not shown),Ki,Recombinant human Src; [3],0.79 µM
same,Papp,[1],1.72 10^−6 cm/sec
same,Metabolic Stab.,[2],94%
CCSc1nc(Nc2cccc(Cl)c2)c2cnn(CC(C)c3ccccc3)c2n1 (stereo not shown),Ki,Recombinant human Src; [3],0.55 µM
same,Papp,[1],3.81 10^−6 cm/sec
CCSc1nc(Nc2cccc(Br)c2)c2cnn(CC(C)c3ccccc3)c2n1 (stereo not shown),Ki,Recombinant human Src,~0.1 µM
same,Ki,Recombinant human Src; [3],0.1 µM
same,Papp,[1],2.03 10^−6 cm/sec
CCSc1nc(Nc2cccc(O)c2)c2cnn(CC(C)c3ccccc3)c2n1 (stereo not shown),Ki,Recombinant human Src; [3],0.11 µM
same,Papp,[1],4.91 10^−6 cm/sec
CC(Cn1ncc2c(Nc3ccccc3)nc(SCCN3CCOCC3)nc21)c1ccccc1 (stereo not shown),Ki,Recombinant human Src; [3],1.44 µM
same,Papp,[1],3.66 10^−6 cm/sec
CC(Cn1ncc2c(Nc3cccc(F)c3)nc(SCCN3CCOCC3)nc21)c1ccccc1 (stereo not shown),Ki,Recombinant human Src; [3],2.34 µM
same,Papp,[1],6.51 10^−6 cm/sec
CC(Cn1ncc2c(Nc3cccc(Cl)c3)nc(SCCN3CCOCC3)nc21)c1ccccc1 (stereo not shown),Ki,Recombinant human Src; [3],0.97 µM
same,Papp,[1],5.51 10^−6 cm/sec
CCCCSc1nc(Nc2cccc(O)c2)c2cnn(CC(Cl)c3ccccc3)c2n1 (stereo not shown),Ki,Recombinant human Src; [3],0.13 µM
same,Papp,[1],3.43 10^−6 cm/sec
CC(C)Sc1nc(Nc2ccccc2)c2cnn(CC(Cl)c3ccccc3)c2n1 (stereo not shown),Ki,Recombinant human Src; [3],0.3 µM
CC(C)Sc1nc(Nc2cccc(F)c2)c2cnn(CC(Cl)c3ccccc3)c2n1 (stereo not shown),Ki,Recombinant human Src; [3],0.26 µM
CC(C)Sc1nc(Nc2cccc(Br)c2)c2cnn(CC(Cl)c3ccccc3)c2n1 (stereo not shown),Ki,Recombinant human Src; [3],0.62 µM
ClC(Cn1ncc2c(Nc3ccccc3)nc(SC3CCCC3)nc21)c1ccccc1 (stereo not shown),Ki,Recombinant human Src; [3],0.12 µM
same,Papp,[1],13 10^−6 cm/sec
same,Metabolic Stab.,[2],94%
CC(Cn1nc(-c2ccc3[nH]ccc3c2)c2c(N)ncnc21)c1ccccc1 (stereo not shown),Ki,recombinant Fyn; [4],1.62 µM
CCCCSc1nc(NCCc2ccccc2)c2cnn(CC(Cl)c3ccccc3)c2n1 (stereo not shown),Ki,recombinant Fyn,> 100 µM
ClC(Cn1ncc2c(NCCc3ccccc3)nc(SC3CCCC3)nc21)c1ccccc1 (stereo not shown),Ki,recombinant Fyn,> 100 µM
ClC(Cn1ncc2c(NCCc3ccccc3)nc(SCCN3CCOCC3)nc21)c1ccccc1 (stereo not shown),Ki,recombinant Fyn,> 100 µM
COc1ccc(-c2nn(CC(Cl)c3ccccc3)c3ncnc(N)c23)cc1 (stereo not shown),Ki,recombinant Fyn; [4],1.49 µM
CNc1nc(SC)nc2c1c(-c1ccccc1)nn2CCc1ccccc1,Ki,recombinant Fyn,> 10 µM
COC(Cn1nc(-c2ccccc2)c2c(N)nc(SC)nc21)c1ccccc1 (stereo not shown),Ki,recombinant Fyn,> 10 µM
ClC(Cn1ncc2c(NCc3ccccc3)ncnc21)c1ccccc1 (stereo not shown) [Si3],Ki,recombinant Fyn; read-out: Ki Fyn,3.5 µM
"CSc1nc(NCCc2ccccc2)c2cnn(CC(Cl)c3ccccc3)c2n1 (stereo not shown) [Si35, 1-(2-chloro-2-phenylethyl)-6-(methylthio)-N-phenethyl-1H-pyrazolo[3,4-d]pyrimidin-4-amine]",PAMPA GI (MR %),[1],(33.0) %
same,"Papp at 5 h, 0.5 mM",[1],7.4 ×10⁻⁶ cm/s
same,PAMPA BBB (MR %),"PAMPA, BBB permeability",(24.5) %
same,"Papp at 5 h, 0.5 mM","PAMPA, BBB permeability",6.17 ×10⁻⁶ cm/s
same,solubility at 24 h,Water solubility assay,0.166 µM
same,solubility thermodynamic at 24 h,Water solubility assay,0.07 µg/mL
same,Metabolic Stab. %,[2],96.2%
"OCCNc1nc(NCc2ccccc2)c2cnn(/C=C/c3ccccc3)c2n1 [Si74, 2-(4-benzylamino-1-styryl-1H-pyrazolo[3,4-d]pyrimidin-6-ylamino)-ethanol]",Ki,recombinant Fyn; read-out: Ki Fyn,1.15 µM
"CSc1nc(Nc2cccc(Cl)c2)c2cnn(CC(Cl)c3ccccc3)c2n1 (stereo not shown) [Si83, 1-(2-chloro-2-phenylethyl)-N-(3-chlorophenyl)-6-(methylthio)-1H-pyrazolo[3,4-d]pyrimidin-4-amine]",PAMPA GI (MR %),[1],(69.9) %
same,"Papp at 5 h, 0.5 mM",[1],0.26 ×10⁻⁶ cm/s
same,PAMPA BBB (MR %),"PAMPA, BBB permeability",(39.6) %
same,"Papp at 5 h, 0.5 mM","PAMPA, BBB permeability",3.14 ×10⁻⁶ cm/s
same,solubility at 24 h,Water solubility assay,0.295 µM
same,solubility thermodynamic at 24 h,Water solubility assay,0.13 µg/mL
same,Metabolic Stab. %,[2],91.1%
"CCCNc1nc(SCCN2CCOCC2)nc2c1cnn2CC(Cl)c1ccccc1 (stereo not shown) [Si109, 1-(2-chloro-2-phenylethyl)-6-((2-morpholinoethyl)thio)-N-propyl-1H-pyrazolo[3,4-d]pyrimidin-4-amine]",Ki,recombinant Fyn,7.5 to 16 µM
"ClC(Cn1ncc2c(NCc3ccccc3)nc(Cc3ccccc3)nc21)c1ccccc1 (stereo not shown) [Si164, N,6-dibenzyl-1-(2-chloro-2-phenylethyl)-1H-pyrazolo[3,4-d]pyrimidin-4-amine]",Ki,recombinant Fyn,7.5 to 16 µM
"Fc1cccc(Nc2nc(SC3CCCC3)nc3c2cnn3CC(Cl)c2ccccc2)c1 (stereo not shown) [Si170, 1-(2-Chloro-2-phenylethyl)-6-(cyclopentylthio)-N-(3-fluorophenyl)-1H-pyrazolo[3,4-d]pyrimidin-4-amine]",Ki,Recombinant human Src; read-out: Ki c-Src,~0.1 µM
CCCCSc1nc(Nc2cccc(Cl)c2)c2cnn(CC(Cl)c3ccccc3)c2n1 (stereo not shown) [Si174],Ki,recombinant Fyn; read-out: Ki Fyn,1.4 µM
"Fc1ccc(CNc2nc(SCCN3CCOCC3)nc3c2cnn3CC(Cl)c2ccccc2)cc1 (stereo not shown) [Si180, 1-(2-chloro-2-phenylethyl)-N-(4-fluorobenzyl)-6-((2-morpholinoethyl)thio)-1H-pyrazolo[3,4-d]pyrimidin-4-amine]",Ki,recombinant Fyn,7.5 to 16 µM
"CSc1nc(NCCc2cccc(Cl)c2)c2cnn(/C=C/c3ccccc3)c2n1 [Si215, N-[2-(3-chlorophenyl)ethyl]-6-(methylthio)-1-[2-phenylvinyl]-1H-pyrazolo[3,4-d]pyrimidin-4-amine]",Ki,recombinant Fyn,7.5 to 16 µM
Clc1ccccc1CNc1ncnc2c1cnn2CC(Cl)c1ccc(Br)cc1 (stereo not shown) [Si221],PAMPA GI,"[1]; Gastrointestinal PAMPA, Table 8",8.78 10^−6 cm · sec^−1
same,PAMPA GI (MR %),[1],(21.0) %
same,PAMPA BBB,"PAMPA, BBB permeability; Blood Brain Barrier PAMPA",13.23 10^−6 cm · sec^−1
same,PAMPA BBB (MR %),"PAMPA, BBB permeability",(7.3) %
same,H2O Sol. (Log S),Water solubility assay; Table 8,(<−8.60) log mol · L^−1
same,H2O Sol.,"Water solubility assay; Table 8, 20° C., 24 h",<0.01 µg/mL
same,Metabolic Stab. %,[2],95.2%
"CC(Cn1ncc2c(Nc3cccc(O)c3)nc(SCCN3CCOCC3)nc21)c1ccccc1.Cl (stereo not shown) [Si329, 3-{[6-[(2-Morpholin-4-ylethyl)thio]-1-(2-phenylpropyl)-1H-pyrazolo[3,4-d]pyrimidin-4-yl]amino}phenol hydrochloride]",Papp,[1],6.81 10^−6 cm/sec
same,H2O Solubility,Water solubility assay,1 µg/mL
same,Metabolic Stab.,[2],99%
"Cl.Oc1cccc(Nc2nc(SCCN3CCOCC3)nc3c2cnn3CCc2ccccc2)c1 [Si332, 3-{[6-[(2-Morpholin-4-ylethyl)thio]-1-(2-phenylethyl)-1H-pyrazolo[3,4-d]pyrimidin-4-yl]amino}phenol hydrochloride]",Papp,[1],6.38 10^−6 cm/sec
same,H2O Solubility,Water solubility assay,97 µg/mL
same,solubility value,Water solubility assay; aqueous,97 µg/mL
same,Metabolic Stab.,[2],97%
"CC(Cn1nc(-c2ccc(Cl)cc2)c2c(N)ncnc21)c1ccccc1 (stereo not shown) [Si337, 3-(4-Chlorophenyl)-1-(2-phenylpropyl)-1H-pyrazolo[3,4-d]pyrimidin-4-amine]",Ki,recombinant Fyn,0.78 µM
same,decreased Fyn activity on substitution of chlorine by methyl in N1 side chain,"recombinant Fyn; Si312 vs Si244, Si337 vs Si308, Si338 vs Si309",about 10 fold
Fc1ccc(CCn2ncc3c(Nc4cccc(Cl)c4)nc(SCCN4CCOCC4)nc32)cc1 [drawing 171],Ki,Recombinant human Src; [3],0.1 µM
same,"Papp at 5 h, 0.5 mM",[1],2.15 ×10⁻⁶ cm/s
same,Metabolic Stab.,[2],97%
"Fc1cccc(Nc2nc(SC3CCCC3)nc3c2cnn3CC(Cl)c2ccccc2)c1 (stereo not shown) [drawing 191, reference compound]",Ki,recombinant Fyn,> 100 µM
CCCNc1nc(SCCN2CCOCC2)nc2c1cnn2CC(Cl)c1ccccc1 (stereo not shown) [drawing 192],Ki,recombinant Fyn; [4],8.15 µM
Fc1ccc(CNc2nc(SCCN3CCOCC3)nc3c2cnn3CC(Cl)c2ccccc2)cc1 (stereo not shown) [drawing 193],Ki,recombinant Fyn; [4],15.5 µM
CCC(C)Sc1nc(NCc2ccccc2)c2cnn(CC(Cl)c3ccccc3)c2n1 (stereo not shown) [drawing 195],Ki,recombinant Fyn,> 100 µM
CCC(C)Sc1nc(NCCc2ccccc2)c2cnn(CC(Cl)c3ccccc3)c2n1 (stereo not shown) [drawing 196],Ki,recombinant Fyn,> 100 µM
CSc1nc(NCCc2cccc(Cl)c2)c2cnn(/C=C/c3ccccc3)c2n1 [drawing 198],Ki,recombinant Fyn; [4],16 µM
ClC(Cn1ncc2c(NCc3ccccc3)nc(Cc3ccccc3)nc21)c1ccccc1 (stereo not shown) [drawing 200],Ki,recombinant Fyn; [4],13 µM
CC(=O)c1ccc(-c2nn(CC(C)c3ccccc3)c3ncnc(N)c23)cc1 (stereo not shown) [drawing 206],Ki,recombinant Fyn,> 10 µM
